Measured values published in ChEMBL document CHEMBL4118185, “Kakeromamide A, a new cyclic pentapeptide inducing astrocyte differentiation isolated from the marine cyanobacterium Moorea bouillonii” (Bioorg Med Chem Lett, 2018).
Calls of active or inactive are those of the source. The rule behind the calls is not given here.

Columns and labels:
[1] = tested on: HeLa; experiment: Cytotoxicity against human HeLa cells after 72 hrs by MTT assay; assay type: functional, cell-based
[2] = tested on: P388; experiment: Cytotoxicity against mouse P388 cells at 10 uM after 72 hrs by MTT assay; assay type: functional, cell-based
[3] = organism: Mus musculus; experiment: Induction of differentiation of mouse neuronal stem cells into astrocytes after 72 hrs by Hoechst 33342 staining based immunofluorescence assay; assay type: functional
[4] = organism: Mus musculus; experiment: Suppression of differentiation of mouse neuronal stem cells into neurons at 2.5 to 10 uM after 72 hrs by NeuO-Hoechst 33342 staining-based microscopic method; assay type: functional
[5] = Cytotoxicity against mouse neuronal stem cells at 2.5 to 10 after 72 hrs; assay type: cell-based

CCC[C@H]1NC(=O)c2csc(n2)[C@H](C(C)C)NC(=O)[C@H](Cc2ccc(OC)cc2)N(C)C(=O)[C@H](Cc2ccc(OC)cc2)N(C)C(=O)[C@H](C(C)C)NC(=O)[C@H]1C
IC50 [1]: 10 µM
Activity [2]: inactive
Activity [3]: Dose-dependent effect
Activity [4]: Active
Activity [5]: Non-Toxic
